How the values were obtained:
[1] = Visual evaluation of Compound B in the presence of sulfate salts; type: physicochemical; conditions: 1 mg/mL in pH 3.0 citrate buffer with 0.1-1.0 M (NH4)2SO4, 20° C.
Protocol: The behavior of Compound B in the presence of sulfate salts was further evaluated visually. Vials containing 1 mg/mL Compound B in pH 3.0 citrate buffer with 0.1 M, 0.25 M, 0.5 M, and 1.0 M, respectively, of (NH4)2SO4 were visually observed at 20° C. […] Solutions became increasingly more viscous with a white/opaque appearance with increasing amounts of ammonium sulfate.

[2] = Aqueous solubility of Compound B; type: physicochemical

With `Cl.NC1(c2ccc(-c3nc4ccn5c(=O)[nH]nc5c4cc3-c3ccccc3)cc2)CCC1` [Compound B, 8-[4-(1-aminocyclobutyl)phenyl]-9-phenyl[1,2,4]triazolo[3,4-f]-1,6-naphthyridin-3-ol] the “time to flocculation after addition of ammonium sulfate” value [1] was less than 30 min, the solubility ([2]; 0.1 M carbonate buffer, aqueous buffer, pH 8.6, 0.1M Carbonate) was 0.7 µg/mL and the solubility ([2]; 0.1 M citrate buffer, aqueous buffer, pH 2.8, 0.1M Citrate) was 10600 µg/mL. For the same molecule, the solubility ([2]; 0.1 M citrate buffer, aqueous buffer, pH 3.9, 0.1M Citrate) was 170 µg/mL, the solubility ([2]; 0.1 M citrate buffer, aqueous buffer, pH 5.0, 0.1M Citrate) was 59 µg/mL and the solubility ([2]; 0.1 M phosphate buffer, aqueous buffer, pH 5.6, 0.1M Phosphate) was 140 µg/mL. The solubility ([2]; 0.1 M phosphate buffer, aqueous buffer, pH 6.9, 0.1M Phosphate) was 36 µg/mL, the solubility ([2]; simulated gastric fluid, pH 2.1, 0.01N HCl) was 4230 µg/mL and the solubility ([2]; un-buffered aqueous medium, water, pH 4.1, Un-buffered) was 7460 µg/mL.

— patent publication US20190374468A1, “Liposomal Formulations for Allosteric AKT Inhibitors” (Merck Sharp & Dohme Corp., priority 2013, published 2019)
